Reference: the NIST ThermoML archive (doi:10.1021/je060001s)
± gives the expanded uncertainty stated by the source.

How the values were obtained:
[1] = 298.15 K; 101.33 kPa; Liquid
[2] = refractive index (Na D-line) (dimensionless); settings: 298.15 K; 101.33 kPa; Liquid; Standard Abbe refractometry

| mass density [1] | refractive index [2] | SMILES |
| --- | --- | --- |
| 776.62 ± 0.52 kg/m3 | 1.3418 ± 0.0004 | CC#N [acetonitrile] |
| 892.16 ± 0.37 kg/m3 | 1.3847 ± 0.0004 | CCCC(=O)OC [methyl butanoate] |
| 879.47 ± 0.39 kg/m3 | 1.4048 ± 0.0004 | CCCCCC(=O)OC [methyl hexanoate] |
| 884.8 ± 0.38 kg/m3 | 1.3971 ± 0.0004 | CCCCC(=O)OC [methyl pentanoate] |
